Measured values taken from patent EP4745137A1 (Gluetacs Therapeutics (Shanghai) Co., Ltd., priority 2023, dated 2025).

Key:
[1] = target: T1, WEE1 (Homo sapiens, UniProt P30291+Q96SW2); assay: Western-blot assay of substrate protein degradation in hPBMCs, WEE1; format: cell-based; details: 24 hours of compound treatment, compounds tested at 50 nM and 500 nM (concentration of the table not stated)
T1 construct: endogenous in cells; host or cells: hPBMCs (Milecell Biotechnologies)

[2] = target: T2, IKZF1 (Homo sapiens, UniProt Q13422+Q96SW2); assay: Western-blot assay of substrate protein degradation in hPBMCs, IKZF1; format: cell-based; details: 24 hours of compound treatment, compounds tested at 50 nM and 500 nM (concentration of the table not stated)
T2 construct: endogenous in cells; host or cells: hPBMCs (Milecell Biotechnologies)
T2 sequence (Q13422 whole entry): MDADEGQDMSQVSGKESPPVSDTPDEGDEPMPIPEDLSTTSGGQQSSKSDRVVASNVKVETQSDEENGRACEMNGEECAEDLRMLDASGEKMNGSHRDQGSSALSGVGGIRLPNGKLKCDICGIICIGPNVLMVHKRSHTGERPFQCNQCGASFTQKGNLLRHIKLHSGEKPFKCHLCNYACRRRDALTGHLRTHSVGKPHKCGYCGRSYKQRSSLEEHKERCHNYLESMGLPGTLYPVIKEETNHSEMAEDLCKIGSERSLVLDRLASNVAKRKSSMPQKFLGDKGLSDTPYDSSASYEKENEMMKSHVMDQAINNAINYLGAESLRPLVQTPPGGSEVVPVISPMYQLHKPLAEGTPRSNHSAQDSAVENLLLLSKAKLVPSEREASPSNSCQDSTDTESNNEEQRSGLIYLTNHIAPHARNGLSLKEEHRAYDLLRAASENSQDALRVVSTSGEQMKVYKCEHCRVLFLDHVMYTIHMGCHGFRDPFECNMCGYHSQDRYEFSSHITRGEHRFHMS
T2 sequence (Q96SW2 whole entry): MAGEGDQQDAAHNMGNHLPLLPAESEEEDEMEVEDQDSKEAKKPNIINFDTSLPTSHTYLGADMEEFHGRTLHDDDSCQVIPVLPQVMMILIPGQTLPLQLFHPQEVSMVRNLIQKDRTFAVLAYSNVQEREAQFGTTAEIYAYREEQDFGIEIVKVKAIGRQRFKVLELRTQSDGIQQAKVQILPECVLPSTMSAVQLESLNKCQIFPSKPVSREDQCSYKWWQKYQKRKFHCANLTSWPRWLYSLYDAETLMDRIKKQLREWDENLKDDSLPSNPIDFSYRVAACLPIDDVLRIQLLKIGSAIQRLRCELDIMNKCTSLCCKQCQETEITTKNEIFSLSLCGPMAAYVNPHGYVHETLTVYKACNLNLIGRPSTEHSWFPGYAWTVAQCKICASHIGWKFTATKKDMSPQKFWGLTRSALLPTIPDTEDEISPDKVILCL
T2 sequence (Q16531 whole entry partner): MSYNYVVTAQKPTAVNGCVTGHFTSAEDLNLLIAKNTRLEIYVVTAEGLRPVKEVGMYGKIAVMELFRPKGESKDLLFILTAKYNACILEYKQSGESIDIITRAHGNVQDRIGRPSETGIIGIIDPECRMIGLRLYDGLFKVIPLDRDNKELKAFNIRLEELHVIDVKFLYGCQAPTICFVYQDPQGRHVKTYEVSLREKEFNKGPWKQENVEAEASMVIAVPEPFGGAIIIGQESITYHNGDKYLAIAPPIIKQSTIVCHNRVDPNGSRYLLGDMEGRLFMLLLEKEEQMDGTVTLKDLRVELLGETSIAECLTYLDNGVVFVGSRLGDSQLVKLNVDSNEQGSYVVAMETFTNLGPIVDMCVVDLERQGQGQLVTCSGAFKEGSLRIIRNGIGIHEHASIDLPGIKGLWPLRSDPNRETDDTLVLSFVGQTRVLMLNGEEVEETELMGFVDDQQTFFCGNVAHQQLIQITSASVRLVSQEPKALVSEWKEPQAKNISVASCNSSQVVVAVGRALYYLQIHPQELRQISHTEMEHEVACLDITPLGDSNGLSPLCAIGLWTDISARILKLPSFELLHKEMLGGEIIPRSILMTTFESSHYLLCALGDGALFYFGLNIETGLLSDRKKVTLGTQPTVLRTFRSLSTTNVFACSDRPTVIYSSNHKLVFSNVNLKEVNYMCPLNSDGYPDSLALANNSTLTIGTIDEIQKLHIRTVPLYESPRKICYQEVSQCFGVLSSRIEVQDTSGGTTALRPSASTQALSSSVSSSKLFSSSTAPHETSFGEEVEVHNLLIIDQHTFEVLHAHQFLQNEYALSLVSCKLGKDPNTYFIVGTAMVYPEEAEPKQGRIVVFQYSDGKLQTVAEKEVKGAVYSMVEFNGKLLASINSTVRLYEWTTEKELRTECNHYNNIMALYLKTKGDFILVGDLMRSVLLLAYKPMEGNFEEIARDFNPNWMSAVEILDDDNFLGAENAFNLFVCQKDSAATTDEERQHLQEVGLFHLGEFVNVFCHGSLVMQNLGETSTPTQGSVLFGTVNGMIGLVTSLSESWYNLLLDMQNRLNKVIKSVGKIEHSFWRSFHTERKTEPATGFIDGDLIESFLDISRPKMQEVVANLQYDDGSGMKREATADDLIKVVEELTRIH

[3] = target: T3, IKZF2 (Homo sapiens, UniProt Q96SW2+Q9UKS7); assay: Western-blot assay of substrate protein degradation in hPBMCs, IKZF2; format: cell-based; details: 24 hours of compound treatment, compounds tested at 50 nM and 500 nM (concentration of the table not stated)
T3 construct: endogenous in cells; host or cells: hPBMCs (Milecell Biotechnologies)
T3 sequence (Q9UKS7 whole entry): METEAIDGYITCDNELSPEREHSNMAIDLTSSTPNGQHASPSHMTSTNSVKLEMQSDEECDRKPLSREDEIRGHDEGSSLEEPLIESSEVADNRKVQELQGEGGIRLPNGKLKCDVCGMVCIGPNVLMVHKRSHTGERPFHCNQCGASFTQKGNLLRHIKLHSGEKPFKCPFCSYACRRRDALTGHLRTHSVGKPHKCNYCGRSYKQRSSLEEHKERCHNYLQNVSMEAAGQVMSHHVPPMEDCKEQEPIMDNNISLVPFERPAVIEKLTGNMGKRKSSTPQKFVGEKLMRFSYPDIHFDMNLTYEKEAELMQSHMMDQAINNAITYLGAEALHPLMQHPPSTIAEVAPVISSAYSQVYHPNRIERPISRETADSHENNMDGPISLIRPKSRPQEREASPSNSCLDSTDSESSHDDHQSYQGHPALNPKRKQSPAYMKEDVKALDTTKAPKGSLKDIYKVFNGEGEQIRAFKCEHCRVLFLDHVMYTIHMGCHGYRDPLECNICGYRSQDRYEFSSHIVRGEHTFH
T3 sequence (Q96SW2 whole entry): as the sequence (Q96SW2 whole entry) above
T3 sequence (Q16531 whole entry partner): as the sequence (Q16531 whole entry partner) above

[4] = target: T4, IKZF3 (Homo sapiens, UniProt Q96SW2+Q9UKT9); assay: Western-blot assay of substrate protein degradation in hPBMCs, IKZF3; format: cell-based; details: 24 hours of compound treatment, compounds tested at 50 nM and 500 nM (concentration of the table not stated)
T4 construct: endogenous in cells; host or cells: hPBMCs (Milecell Biotechnologies)
T4 sequence (Q9UKT9 whole entry): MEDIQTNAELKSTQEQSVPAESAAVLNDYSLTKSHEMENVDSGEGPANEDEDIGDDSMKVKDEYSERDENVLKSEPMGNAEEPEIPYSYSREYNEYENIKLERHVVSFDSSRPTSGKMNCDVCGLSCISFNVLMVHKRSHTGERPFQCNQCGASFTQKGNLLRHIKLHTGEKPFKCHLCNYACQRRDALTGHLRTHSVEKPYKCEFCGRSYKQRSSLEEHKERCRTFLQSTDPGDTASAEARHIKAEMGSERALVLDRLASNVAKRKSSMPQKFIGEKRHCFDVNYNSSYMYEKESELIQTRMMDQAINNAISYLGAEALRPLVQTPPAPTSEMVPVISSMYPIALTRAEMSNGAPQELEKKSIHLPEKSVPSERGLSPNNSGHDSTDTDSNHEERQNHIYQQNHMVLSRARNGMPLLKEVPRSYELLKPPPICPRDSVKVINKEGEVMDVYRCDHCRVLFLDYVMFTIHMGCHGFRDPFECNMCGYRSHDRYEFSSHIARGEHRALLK
T4 sequence (Q96SW2 whole entry): as the sequence (Q96SW2 whole entry) above
T4 sequence (Q16531 whole entry partner): as the sequence (Q16531 whole entry partner) above

[5] = target: T5, CK1α (Homo sapiens, UniProt P48729+Q96SW2); assay: Western-blot assay of substrate protein degradation in hPBMCs, CK1α; format: cell-based; details: 24 hours of compound treatment, compounds tested at 50 nM and 500 nM (concentration of the table not stated)
T5 construct: endogenous in cells; host or cells: hPBMCs (Milecell Biotechnologies)

[6] = target: T6, GSPT1 (Homo sapiens, UniProt P15170+Q96SW2); assay: Western-blot assay of substrate protein degradation in hPBMCs, GSPT1; format: cell-based; details: 24 hours of compound treatment, compounds tested at 50 nM and 500 nM (concentration of the table not stated)
T6 construct: endogenous in cells; host or cells: hPBMCs (Milecell Biotechnologies)
T6 sequence (P15170 whole entry): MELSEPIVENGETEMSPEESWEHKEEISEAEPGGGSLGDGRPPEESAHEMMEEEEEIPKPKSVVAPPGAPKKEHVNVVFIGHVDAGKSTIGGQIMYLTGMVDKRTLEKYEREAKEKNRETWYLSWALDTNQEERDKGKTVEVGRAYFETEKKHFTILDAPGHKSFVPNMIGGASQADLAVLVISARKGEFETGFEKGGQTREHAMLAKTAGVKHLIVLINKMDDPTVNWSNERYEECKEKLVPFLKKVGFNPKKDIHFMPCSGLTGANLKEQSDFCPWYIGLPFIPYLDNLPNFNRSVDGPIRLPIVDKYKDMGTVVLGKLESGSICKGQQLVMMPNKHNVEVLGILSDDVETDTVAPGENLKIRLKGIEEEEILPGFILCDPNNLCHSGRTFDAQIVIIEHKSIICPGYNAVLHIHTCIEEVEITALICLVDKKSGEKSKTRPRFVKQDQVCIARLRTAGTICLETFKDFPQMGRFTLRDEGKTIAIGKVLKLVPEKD
T6 sequence (Q96SW2 whole entry): as the sequence (Q96SW2 whole entry) above
T6 sequence (Q16531 whole entry partner): as the sequence (Q16531 whole entry partner) above

[7] = target: T7, human Cereblon WT GST-tagged protein (Homo sapiens, UniProt Q96SW2); assay: CRBN-binding affinity by HTRF (CEREBLON BINDING kit); details: HTRF inhibitory activity, CEREBLON BINDING kit; read-out: HTRF IC50
T7 construct: purchased CISBIO 64BDCRBNPEH
T7 sequence (Q96SW2 whole entry): as the sequence (Q96SW2 whole entry) above

[8] = system: Vcap; assay: Tumor cell proliferation inhibition (CellTiter-Meiluncell Luminescent Cell Viability Assay), Vcap; details: Homo sapiens, 96 h, read-out: inhibitory activity (IC50, nM) against tumor cells proliferation, Vcap
[9] = system: MM.1R; assay: Tumor cell proliferation inhibition (CellTiter-Meiluncell Luminescent Cell Viability Assay), MM.1R; details: Homo sapiens, 96 h, read-out: inhibitory activity (IC50, nM) against tumor cells proliferation, MM.1R
[10] = system: SW620; assay: Tumor cell proliferation inhibition (CellTiter-Meiluncell Luminescent Cell Viability Assay), SW620; details: Homo sapiens, SW-620, 96 h, read-out: inhibitory activity (IC50, nM) against tumor cells proliferation, SW620
[11] = system: Jurkat; assay: Tumor cell proliferation inhibition (CellTiter-Meiluncell Luminescent Cell Viability Assay), Jurkat; details: Homo sapiens, 96 h, read-out: inhibitory activity (IC50, nM) against tumor cells proliferation, Jurkat
[12] = system: CAL-62; assay: Tumor cell proliferation inhibition (CellTiter-Meiluncell Luminescent Cell Viability Assay), CAL-62; details: Homo sapiens, CAL-62, 96 h, read-out: inhibitory activity (IC50, nM) against tumor cells proliferation, CAL-62
[13] = system: Human acute T lymphocytic leukemia cells (Molt-4); assay: Tumor cell proliferation inhibition (CellTiter-Meiluncell Luminescent Cell Viability Assay), Molt-4; details: MOLT-4, 96 h, read-out: inhibitory activity (IC50, nM) against tumor cells proliferation, Molt 4
Method: (§1) The tumor cells used herein were cultured in a cell culture medium listed in table 2 at 37°C in an incubator with 5% CO2. Prior to experimentation, all cell lines used were correctly identified by STR profiling, and tested negative for mycoplasma contamination using a mycoplasma detection kit through routine screenings.
On the following day, the test compounds of the present disclosure were subjected to serial dilution. […] Subsequently, 0.5 µL of the test compound dilution was transferred into the 96-well plate containing the cells, with each well containing 100 µL of cell culture medium. […] Into the 96-well plate, the diluted test compounds and corresponding detection reagents were added, resulting in final test compound concentrations of 500 nM and 10 nM, respectively. The experimental procedure is described below using the diluted 2 µM test compound as an example.
(§2) After the cells were treated with the compounds of the present disclosure for a specified period (the treatment durations were shown in Table 3), the cell viability assay reagent was added to the culture medium according to the kit's instructions to determine cell viability. […] All controls were treated using the same procedure as the compounds of the present disclosure. The growth inhibition curves for the compounds of the present disclosure were plotted using Prism GraphPad software, and the IC50 values were calculated therefrom.

[14] = system: MGC803; assay: Tumor cell proliferation inhibition (CellTiter-Meiluncell Luminescent Cell Viability Assay), MGC803; details: Homo sapiens, MGC-803, 96 h, read-out: inhibitory activity (IC50, nM) against tumor cells proliferation, MGC803
Method: as §1
On the following day, the test compounds of the present disclosure were subjected to serial dilution. […] Subsequently, 0.5 µL of the test compound dilution was transferred into the 96-well plate containing the cells, with each well containing 100 µL of cell culture medium. […] Into the 96-well plate, the diluted test compounds and corresponding detection reagents were added, resulting in final test compound concentrations of 500 nM and 10 nM, respectively.
as §2

[15] = system: CCRF-CEM; assay: Tumor cell proliferation inhibition (CellTiter-Meiluncell Luminescent Cell Viability Assay), CCRF-CEM; details: Homo sapiens, 96 h, read-out: inhibitory activity (IC50, nM) against tumor cells proliferation, CCRF-CEM
[16] = system: NCI-H1975; assay: Tumor cell proliferation inhibition (CellTiter-Meiluncell Luminescent Cell Viability Assay), NCI-H1975; details: Homo sapiens, NCI-H1975, 96 h, read-out: inhibitory activity (IC50, nM) against tumor cells proliferation, H1975
[17] = system: Human breast cancer cells (MDA-MB-231); assay: Tumor cell proliferation inhibition (CellTiter-Meiluncell Luminescent Cell Viability Assay), MDA-MB-231; details: MDA-MB-231, 96 h, read-out: inhibitory activity (IC50, nM) against tumor cells proliferation, MDA-MB-231

T1 sequence (P30291 whole entry): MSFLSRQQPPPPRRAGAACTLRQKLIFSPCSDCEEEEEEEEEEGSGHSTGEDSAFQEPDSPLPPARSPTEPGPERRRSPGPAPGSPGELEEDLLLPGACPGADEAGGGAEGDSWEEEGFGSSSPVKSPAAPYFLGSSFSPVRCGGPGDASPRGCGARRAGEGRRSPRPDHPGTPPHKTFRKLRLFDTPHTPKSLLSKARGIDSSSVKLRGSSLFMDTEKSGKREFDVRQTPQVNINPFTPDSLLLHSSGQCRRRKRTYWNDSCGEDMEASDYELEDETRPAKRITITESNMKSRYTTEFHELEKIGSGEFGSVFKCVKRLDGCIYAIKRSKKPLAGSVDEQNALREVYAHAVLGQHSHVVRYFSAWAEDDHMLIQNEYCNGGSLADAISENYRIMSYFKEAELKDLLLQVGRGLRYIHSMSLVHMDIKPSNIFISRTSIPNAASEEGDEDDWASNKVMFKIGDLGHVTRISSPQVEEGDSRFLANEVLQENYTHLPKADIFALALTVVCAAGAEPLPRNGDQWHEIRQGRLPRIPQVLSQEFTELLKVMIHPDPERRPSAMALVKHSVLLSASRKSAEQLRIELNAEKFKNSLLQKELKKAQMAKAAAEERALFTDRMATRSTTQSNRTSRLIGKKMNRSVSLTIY
T1 sequence (Q96SW2 whole entry): as the sequence (Q96SW2 whole entry) above
T1 sequence (Q16531 whole entry partner): as the sequence (Q16531 whole entry partner) above

| SMILES | Weel substrate protein remaining % [1] | IKZF 1 substrate protein remaining % [2] | IKZF2 substrate protein remaining % [3] | IKZF3 substrate protein remaining % [4] | CK1a substrate protein remaining % [5] | GSPT1 substrate protein remaining % [6] | IC50 [7] [nM] | IC50 [8] [nM] | IC50 [9] [nM] | IC50 [10] [nM] | IC50 [11] [nM] | IC50 [12] [nM] | IC50 [13] [nM] | IC50 [14] [nM] | IC50 [15] [nM] | IC50 [16] [nM] | IC50 [17] [nM] |
| --- | --- | --- | --- | --- | --- | --- | --- | --- | --- | --- | --- | --- | --- | --- | --- | --- | --- |
| O=C1CCC(N2Cc3cc(CN4CCN(c5cccc(C(F)(F)F)n5)CC4)ccc3C2=O)C(=O)N1 (centres unmarked) [GT-04432, 3-(1-oxo-5-((4-(6-(trifluoromethyl)pyridin-2-yl)piperazin-1-yl)methyl)isoindolin-2-yl)piperidine-2,6-dione] | A (0% ≤ substrate protein remaining % ≤ 80%) | A (0% ≤ substrate protein remaining % ≤ 80%) | A (0% ≤ substrate protein remaining % ≤ 80%) | A (0% ≤ substrate protein remaining % ≤ 80%) | B (80%< substrate protein remaining %≤ 100%) | A (0% ≤ substrate protein remaining % ≤ 80%) | 500 to 1000 | 10 to 50 | 5 to 10 | 100 to 500 | 1 to 5 | 10 to 50 | 5 to 10 | 100 to 500 | 5 to 10 | 100 to 500 | 500 to 1000 |
| O=C1CCC(N2Cc3cc(CN4CCN(c5ccc(F)cc5F)CC4)ccc3C2=O)C(=O)N1 (centres unmarked) [GT-04438, 3-(5-((4-(2,4-difluorophenyl)piperazin-1-yl)methyl)-1-oxoisoindolin-2-yl)piperidine-2,6-dione] | A (0% ≤ substrate protein remaining % ≤ 80%) | A (0% ≤ substrate protein remaining % ≤ 80%) | A (0% ≤ substrate protein remaining % ≤ 80%) | A (0% ≤ substrate protein remaining % ≤ 80%) | A (0% ≤ substrate protein remaining % ≤ 80%) | A (0% ≤ substrate protein remaining % ≤ 80%) | 500 to 1000 | 50 to 100 | 10 to 50 | 100 to 500 | 10 to 50 | 10 to 50 | 10 to 50 |  | 10 to 50 | 500 to 1000 |  |
| Cc1ccc(Cl)cc1N1CCN(Cc2ccc3c(c2)CN(C2CCC(=O)NC2=O)C3=O)CC1 (centres unmarked) [GT-04440, 3-(5-((4-(5-chloro-2-methylphenyl)piperazin-1-yl)methyl)-1-oxoisoindolin-2-yl)piperidine-2,6-dione] | A (0% ≤ substrate protein remaining % ≤ 80%) | A (0% ≤ substrate protein remaining % ≤ 80%) | A (0% ≤ substrate protein remaining % ≤ 80%) | A (0% ≤ substrate protein remaining % ≤ 80%) | A (0% ≤ substrate protein remaining % ≤ 80%) | A (0% ≤ substrate protein remaining % ≤ 80%) | 500 to 1000 | 50 to 100 | 10 to 50 | 500 to 1000 | 10 to 50 | 10 to 50 | 5 to 10 | 500 to 1000 | 10 to 50 | 500 to 1000 | 500 to 1000 |
| COc1cccc(N2CCN(Cc3ccc4c(c3)CN(C3CCC(=O)NC3=O)C4=O)CC2)c1 (centres unmarked) [GT-04448, 3-(5-((4-(3-methoxyphenyl)piperazin-1-yl)methyl)-1-oxoisoindolin-2-yl)piperidine-2,6-dione] | A (0% ≤ substrate protein remaining % ≤ 80%) | A (0% ≤ substrate protein remaining % ≤ 80%) | A (0% ≤ substrate protein remaining % ≤ 80%) | A (0% ≤ substrate protein remaining % ≤ 80%) | A (0% ≤ substrate protein remaining % ≤ 80%) | A (0% ≤ substrate protein remaining % ≤ 80%) | 1000 to 1500 | 50 to 100 | 10 to 50 | 100 to 500 | 10 to 50 | 10 to 50 | 10 to 50 | 500 to 1000 | 10 to 50 | 100 to 500 | 500 to 1000 |
| O=C1CCC(N2Cc3cc(CN4CCC(c5ccccc5)CC4)ccc3C2=O)C(=O)N1 (centres unmarked) [GT-04465, 3-(1-oxo-5-((4-phenylpiperidin-1-yl)methyl)isoindolin-2-yl)piperidine-2,6-dione] | A (0% ≤ substrate protein remaining % ≤ 80%) | A (0% ≤ substrate protein remaining % ≤ 80%) | A (0% ≤ substrate protein remaining % ≤ 80%) | A (0% ≤ substrate protein remaining % ≤ 80%) | A (0% ≤ substrate protein remaining % ≤ 80%) | A (0% ≤ substrate protein remaining % ≤ 80%) | 1000 to 1500 | 50 to 100 | 10 to 50 | 100 to 500 | 10 to 50 | 10 to 50 | 10 to 50 | 100 to 500 | 10 to 50 | 500 to 1000 |  |
| O=C1CCC(N2Cc3cc(CN4CCC(c5ccc(Cl)cc5)CC4)ccc3C2=O)C(=O)N1 (centres unmarked) [GT-04469, 3-(5-((4-(4-chlorophenyl)piperidin-1-yl)methyl)-1-oxoisoindolin-2-yl)piperidine-2,6-dione] | A (0% ≤ substrate protein remaining % ≤ 80%) | A (0% ≤ substrate protein remaining % ≤ 80%) | A (0% ≤ substrate protein remaining % ≤ 80%) | A (0% ≤ substrate protein remaining % ≤ 80%) | A (0% ≤ substrate protein remaining % ≤ 80%) | A (0% ≤ substrate protein remaining % ≤ 80%) | 500 to 1000 | 50 to 100 | 10 to 50 | 500 to 1000 | 10 to 50 | 10 to 50 | 10 to 50 | 500 to 1000 | 5 to 10 |  |  |
| Cc1ccsc1C1CCN(Cc2ccc3c(c2)CN(C2CCC(=O)NC2=O)C3=O)CC1 (centres unmarked) [GT-04502, 3-(5-((4-(3-methylthiophen-2-yl)piperidin-1-yl)methyl)-1-oxoisoindolin-2-yl)piperidine-2,6-dione] | A (0% ≤ substrate protein remaining % ≤ 80%) | A (0% ≤ substrate protein remaining % ≤ 80%) | A (0% ≤ substrate protein remaining % ≤ 80%) | A (0% ≤ substrate protein remaining % ≤ 80%) | A (0% ≤ substrate protein remaining % ≤ 80%) | A (0% ≤ substrate protein remaining % ≤ 80%) | 500 to 1000 | 50 to 100 | 10 to 50 | 100 to 500 | 10 to 50 | 10 to 50 | 10 to 50 |  | 10 to 50 |  |  |
| Cc1cscc1C1CCN(Cc2ccc3c(c2)CN(C2CCC(=O)NC2=O)C3=O)CC1 (centres unmarked) [GT-04504, 3-(5-((4-(4-methylthiophen-3-yl)piperidin-1-yl)methyl)-1-oxoisoindolin-2-yl)piperidine-2,6-dione] | A (0% ≤ substrate protein remaining % ≤ 80%) | A (0% ≤ substrate protein remaining % ≤ 80%) | A (0% ≤ substrate protein remaining % ≤ 80%) | A (0% ≤ substrate protein remaining % ≤ 80%) | B (80%< substrate protein remaining %≤ 100%) | A (0% ≤ substrate protein remaining % ≤ 80%) | 500 to 1000 | 50 to 100 | 10 to 50 | 100 to 500 | 10 to 50 | 10 to 50 | 10 to 50 |  | 10 to 50 |  |  |
